Here are results for five compounds from patent publication US9765300B2, “Hepatic cell lines and stem-like cells, methods of making and using the same” (priority 2014, dated 2017).

SMILES strings stand for the structures.

For data set [1], the system named is Hepa-SC cells. The note with it: 10 μM; cited from earlier work.
Data set [2] deals with Hepa-RP. The data set can be described thus: Cholestatic drug screening: alterations of bile saccular canaliculi in Hepa-RP. The data set is classed as cell-based, human. The note with it: Hepa-RP at passage 29 (10 passages with a corticoid-free medium).
In data set [3] the test system is HEPARG® cells. In words: Comparative study of epigenetic modulators for HEPARG reprogramming to Hepa-SC (toxicity in culture). The data set is classed as cell-based, human. The settings on record: even at low concentration, in our culture conditions. An excerpt:
• Step 1: Culturing the parental cells in a culture medium that has been modified in order to eliminate all factors supporting differentiation processes during a 2-passage culture period; • Step 2: Inducing mechanical stress such as shape constraint, onto the cells in order to generate a reprogramming signal toward stemness that should be associated with occurrence of a mechano-transduction signaling in all the cells in a synchronized manner, resulting in expression of a “stem cell signature” at the genome level; • Step 3: Inducing the stability of this stem cell fate by epigenetic mechanism, for instance by exposing the cells to methylation/acetylation modulators such as HDAC molecules. Epigenetic modifications refer to mitotically heritable changes in gene expression that are not coded in the DNA sequence itself (Levenson J M, Sweatt J D., 2005). The chosen epigenetic molecule should neither alter cell proliferation activity nor provoke toxicity effects and/or apoptotic induction. 5-azacytidine inhibits DNA methylation. It has been preferentially chosen for HEPARG® reprogramming to Hepa-SC stem-like cells after comparative study with Bix 01294, a small molecule known to inhibit the histone H3 methylation. […]

The test system of data set [4] is CYP450 enzymes.

For the compound `Nc1ncn([C@H]2C[C@H](O)[C@@H](CO)O2)c(=O)n1` [5-aza-2′-deoxycytidine], in data set [1], the “inhibition of cell proliferation” value is listed as “does not inhibit cell proliferation” and the visible cell toxicity result was “does not induce visible cell toxicity”.
`O=S(=O)(c1cccc2cnccc12)N1CCCNCC1` [Fasudil]: the “cholestatic effect on the bile saccular canaliculi (alteration)” value in data set [2] is recorded as “dilatation”.
The same measure, in the same setting: in the case of `CN(C)CCCN1c2ccccc2Sc2ccc(Cl)cc21` [Chlorpromazine] it was “constriction”.
For `COc1cc2nc(N3CCCN(C)CC3)nc(NC3CCN(Cc4ccccc4)CC3)c2cc1OC` [Bix 01294], in data set [3], the “toxicity compared with 5-azacytidine” value is listed as “much more toxic”.
On to `C[S+](C)[O-]` [DMSO], for which the “induction of three distinct CYP450 enzymes activity” value in data set [4] was “induced”.
